Source: PubChem BioAssay AID1963867 (Molecular Pharmacology Branch, DTP, NCI, 2024)

Test system: KRAS-mutant PDC tumor spheroid with HUVEC/MSC, viability
Test: Anticancer human tumor 327498-153-R-J2-PDC patient-derived uterine carcinosarcoma cell line growth inhibition [KRAS2]
Settings: for IC50: curve of first compound; for viability, T/C: stronger effect = lower value
Method in brief: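 KRAS-mutant tumor cells were grown as spheroids with HUVEC endothelial cells and human MSCs as stroma. Targeted agents were tested alone and with KRAS pathway inhibitors. Doses started at or near clinical Cmax, or 10 microM, descending half-log.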

[1] = second compound 0.1 µM, first compound 0.000316 µM
[2] = second compound 0.1 µM, first compound 0.001 µM
[3] = second compound 0.1 µM, first compound 0.00316 µM
[4] = second compound 0.1 µM, first compound 0.01 µM
[5] = second compound 0.1 µM, first compound 0.0316 µM
[6] = second compound 0.316 µM, first compound 0.000316 µM
[7] = second compound 0.316 µM, first compound 0.001 µM
[8] = second compound 0.316 µM, first compound 0.00316 µM
[9] = second compound 0.316 µM, first compound 0.01 µM
[10] = second compound 0.316 µM, first compound 0.0316 µM
[11] = second compound 1 µM, first compound 0.000316 µM
[12] = second compound 1 µM, first compound 0.001 µM
[13] = second compound 1 µM, first compound 0.00316 µM
[14] = second compound 1 µM, first compound 0.01 µM
[15] = second compound 1 µM, first compound 0.0316 µM
[16] = second compound 3.16 µM, first compound 0.000316 µM
[17] = second compound 3.16 µM, first compound 0.001 µM
[18] = second compound 3.16 µM, first compound 0.00316 µM
[19] = second compound 3.16 µM, first compound 0.01 µM
[20] = second compound 3.16 µM, first compound 0.0316 µM
[21] = second compound 0.0316 µM, first compound 0.01 µM
[22] = second compound 0.0316 µM, first compound 0.0316 µM
[23] = second compound 0.0316 µM, first compound 0.1 µM
[24] = second compound 0.0316 µM, first compound 0.316 µM
[25] = second compound 0.0316 µM, first compound 1 µM
[26] = second compound 0.0316 µM, first compound 3.16 µM
[27] = second compound 0.1 µM, first compound 0.1 µM
[28] = second compound 0.1 µM, first compound 0.316 µM
[29] = second compound 0.1 µM, first compound 1 µM
[30] = second compound 0.1 µM, first compound 3.16 µM
[31] = second compound 0.316 µM, first compound 0.1 µM
[32] = second compound 0.316 µM, first compound 0.316 µM
[33] = second compound 0.316 µM, first compound 1 µM
[34] = second compound 0.316 µM, first compound 3.16 µM
[35] = second compound 1 µM, first compound 0.1 µM
[36] = second compound 1 µM, first compound 0.316 µM
[37] = second compound 1 µM, first compound 1 µM
[38] = second compound 1 µM, first compound 3.16 µM
[39] = second compound 3.16 µM, first compound 0.1 µM
[40] = second compound 3.16 µM, first compound 0.316 µM
[41] = second compound 3.16 µM, first compound 1 µM
[42] = second compound 3.16 µM, first compound 3.16 µM
[43] = second compound 0.0316 µM, first compound 0.000316 µM
[44] = second compound 0.0316 µM, first compound 0.001 µM
[45] = second compound 0.0316 µM, first compound 0.00316 µM
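Also: spheroids exposed to agents for seven days before reading.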
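For viability, T/C in this document: 100% = DMSO vehicle wells so lower means fewer viable cells.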

CC(=O)Nc1cccc(-n2c(=O)n(C3CC3)c(=O)c3c(Nc4ccc(I)cc4F)n(C)c(=O)c(C)c32)c1 + CC1OCC2(CCN(c3cnc(Sc4ccnc(N)c4Cl)c(N)n3)CC2)C1N
IC50 (second compound 0.1 µM): 1.66 nM
IC50 (second compound 0.316 µM): 0.493 nM
IC50 (second compound 1 µM): < 0.1 nM
IC50 (second compound 3.16 µM): < 0.1 nM
IC50 (second compound 10 µM): < 0.1 nM
viability, T/C (second compound 0.1 µM, first compound 0.0001 µM): 75.2%
viability, T/C [1]: 58.4%
viability, T/C [2]: 50.2%
viability, T/C [3]: 46.5%
viability, T/C [4]: 44.7%
viability, T/C [5]: 26.3%
viability, T/C (second compound 0.316 µM, first compound 0.0001 µM): 52.7%
viability, T/C [6]: 52.4%
viability, T/C [7]: 48.2%
viability, T/C [8]: 40.8%
viability, T/C [9]: 35%
viability, T/C [10]: 22.8%
viability, T/C (second compound 1 µM, first compound 0.0001 µM): 41%
viability, T/C [11]: 35.2%
viability, T/C [12]: 34.9%
viability, T/C [13]: 29.7%
viability, T/C [14]: 26.8%
viability, T/C [15]: 16.1%
viability, T/C (second compound 3.16 µM, first compound 0.0001 µM): 31.1%
viability, T/C [16]: 26.9%
viability, T/C [17]: 22.1%
viability, T/C [18]: 22.1%
viability, T/C [19]: 17.2%
viability, T/C [20]: 13.1%
viability, T/C (second compound 10 µM, first compound 0.0001 µM): 22.8%
viability, T/C (second compound 10 µM, first compound 0.000316 µM): 21.3%
viability, T/C (second compound 10 µM, first compound 0.001 µM): 21.6%
viability, T/C (second compound 10 µM, first compound 0.00316 µM): 15.8%
viability, T/C (second compound 10 µM, first compound 0.01 µM): 13.9%
viability, T/C (second compound 10 µM, first compound 0.0316 µM): 11.3%

CC(=O)OC12COC1CC(O)C1(C)C(=O)C(O)C3=C(C)C(OC(=O)C(O)C(NC(=O)OC(C)(C)C)c4ccccc4)CC(O)(C(OC(=O)c4ccccc4)C21)C3(C)C (stereo not given) + C=CC(=O)N1CCN(c2nc(OCC3CCCN3C)nc3c2CCN(c2cccc4cccc(C)c24)C3)CC1CC#N
IC50 (second compound 0.0316 µM): < 10 nM
IC50 (second compound 0.1 µM): < 10 nM
IC50 (second compound 0.316 µM): < 10 nM
IC50 (second compound 1 µM): < 10 nM
IC50 (second compound 3.16 µM): < 10 nM
viability, T/C [21]: 6.75%
viability, T/C [22]: 5.33%
viability, T/C [23]: 6.51%
viability, T/C [24]: 6.19%
viability, T/C [25]: 7.48%
viability, T/C [26]: 10.1%
viability, T/C [4]: 5.53%
viability, T/C [5]: 4.17%
viability, T/C [27]: 3.96%
viability, T/C [28]: 4.52%
viability, T/C [29]: 6.93%
viability, T/C [30]: 8.74%
viability, T/C [9]: 4.9%
viability, T/C [10]: 4.31%
viability, T/C [31]: 4.23%
viability, T/C [32]: 4.71%
viability, T/C [33]: 5.82%
viability, T/C [34]: 7.76%
viability, T/C [14]: 4.4%
viability, T/C [15]: 3.43%
viability, T/C [35]: 3.95%
viability, T/C [36]: 3.86%
viability, T/C [37]: 5.54%
viability, T/C [38]: 4.84%
viability, T/C [19]: 7.35%
viability, T/C [20]: 6.27%
viability, T/C [39]: 5.84%
viability, T/C [40]: 6.15%
viability, T/C [41]: 7.24%
viability, T/C [42]: 10.6%

Cn1ncnc1[C@H]1c2n[nH]c(=O)c3cc(F)cc(c23)N[C@@H]1c1ccc(F)cc1 + C=CC(=O)N1CCN(c2nc(OCC3CCCN3C)nc3c2CCN(c2cccc4cccc(C)c24)C3)CC1CC#N
IC50 (second compound 0.0316 µM): 7.27 nM
IC50 (second compound 0.1 µM): 3.84 nM
IC50 (second compound 0.316 µM): 1.97 nM
IC50 (second compound 1 µM): < 0.316 nM
IC50 (second compound 3.16 µM): < 0.316 nM
viability, T/C [43]: 77.5%
viability, T/C [44]: 69.2%
viability, T/C [45]: 63.3%
viability, T/C [21]: 45.2%
viability, T/C [22]: 28.2%
viability, T/C [23]: 16.9%
viability, T/C [1]: 54.5%
viability, T/C [2]: 57.5%
viability, T/C [3]: 54.3%
viability, T/C [4]: 35.2%
viability, T/C [5]: 21.9%
viability, T/C [27]: 14.6%
viability, T/C [6]: 56.1%
viability, T/C [7]: 48.5%
viability, T/C [8]: 49.8%
viability, T/C [9]: 32.8%
viability, T/C [10]: 18.7%
viability, T/C [31]: 13.7%
viability, T/C [11]: 44%
viability, T/C [12]: 53.7%
viability, T/C [13]: 37.1%
viability, T/C [14]: 25.4%
viability, T/C [15]: 17.1%
viability, T/C [35]: 12.3%
viability, T/C [16]: 0.23%
viability, T/C [17]: 0.18%
viability, T/C [18]: 0.94%
viability, T/C [19]: 0.16%
viability, T/C [20]: 0.18%
viability, T/C [39]: 0.22%

CC(C)n1nc(-c2ccc3oc(N)nc3c2)c2c(N)ncnc21 + C=CC(=O)N1CCN(c2nc(OCC3CCCN3C)nc3c2CCN(c2cccc4cccc(C)c24)C3)CC1CC#N
IC50 (second compound 0.0316 µM): 1.03 nM
IC50 (second compound 0.1 µM): 0.342 nM
IC50 (second compound 0.316 µM): 0.586 nM
IC50 (second compound 1 µM): < 0.316 nM
IC50 (second compound 3.16 µM): < 0.316 nM
viability, T/C [43]: 62.7%
viability, T/C [44]: 49.2%
viability, T/C [45]: 35.1%
viability, T/C [21]: 17.8%
viability, T/C [22]: 8.35%
viability, T/C [23]: 5.42%
viability, T/C [1]: 51.6%
viability, T/C [2]: 35.8%
viability, T/C [3]: 28.4%
viability, T/C [4]: 17.2%
viability, T/C [5]: 8.1%
viability, T/C [27]: 4.85%
viability, T/C [6]: 57.3%
viability, T/C [7]: 43.7%
viability, T/C [8]: 28.8%
viability, T/C [9]: 15.8%
viability, T/C [10]: 9.55%
viability, T/C [31]: 4.33%
viability, T/C [11]: 46.5%
viability, T/C [12]: 33%
viability, T/C [13]: 22.6%
viability, T/C [14]: 13.2%
viability, T/C [15]: 4.83%
viability, T/C [35]: 3.23%
viability, T/C [16]: 0.28%
viability, T/C [17]: 0.25%
viability, T/C [18]: 0.22%
viability, T/C [19]: 0.14%
viability, T/C [20]: 0.14%
viability, T/C [39]: 0.21%

CC1OCC2(CCN(c3cnc(Sc4ccnc(N)c4Cl)c(N)n3)CC2)C1N (stereo not given) + C=CC(=O)N1CCN(c2nc(OCC3CCCN3C)nc3c2CCN(c2cccc4cccc(C)c24)C3)CC1CC#N
IC50 (second compound 0.0316 µM): < 31.6 nM
IC50 (second compound 0.1 µM): < 31.6 nM
IC50 (second compound 0.316 µM): < 31.6 nM
IC50 (second compound 1 µM): < 31.6 nM
IC50 (second compound 3.16 µM): < 31.6 nM
viability, T/C [22]: 44%
viability, T/C [23]: 40.3%
viability, T/C [24]: 23.9%
viability, T/C [25]: 22.6%
viability, T/C [26]: 19.6%
viability, T/C (second compound 0.0316 µM, first compound 10 µM): 14.9%
viability, T/C [5]: 41.2%
viability, T/C [27]: 32.9%
viability, T/C [28]: 24.9%
viability, T/C [29]: 21.2%
viability, T/C [30]: 16.2%
viability, T/C (second compound 0.1 µM, first compound 10 µM): 16.4%
viability, T/C [10]: 40.6%
viability, T/C [31]: 30.9%
viability, T/C [32]: 24.4%
viability, T/C [33]: 20.4%
viability, T/C [34]: 16.4%
viability, T/C (second compound 0.316 µM, first compound 10 µM): 15.3%
viability, T/C [15]: 33%
viability, T/C [35]: 24.2%
viability, T/C [36]: 23.1%
viability, T/C [37]: 19.3%
viability, T/C [38]: 14.3%
viability, T/C (second compound 1 µM, first compound 10 µM): 13.5%
viability, T/C [20]: 0.14%
viability, T/C [39]: 0.15%
viability, T/C [40]: 0.14%
viability, T/C [41]: 0.13%
viability, T/C [42]: 0.15%
viability, T/C (second compound 3.16 µM, first compound 10 µM): 0.24%
